Source: patent EP0415470A2, “Aminopeptidase” (CAMPINA MELKUNIE B.V., priority 1989, dated 1991)
“Also recorded” adds a separate entry of the source. Where a SMILES comes first, the peptide text is derived from it. The star is where a group is joined. pNA = O=[N+]([O-])c1ccc(N*)cc1

Experiments:
[1] = target: T1, aminopeptidase of L. lactis subsp. cremoris Wg2 (Lactococcus lactis subsp. cremoris, UniProt P0C2T8); assay type: biochemical
T1 sequence (P0C2T8 1-846): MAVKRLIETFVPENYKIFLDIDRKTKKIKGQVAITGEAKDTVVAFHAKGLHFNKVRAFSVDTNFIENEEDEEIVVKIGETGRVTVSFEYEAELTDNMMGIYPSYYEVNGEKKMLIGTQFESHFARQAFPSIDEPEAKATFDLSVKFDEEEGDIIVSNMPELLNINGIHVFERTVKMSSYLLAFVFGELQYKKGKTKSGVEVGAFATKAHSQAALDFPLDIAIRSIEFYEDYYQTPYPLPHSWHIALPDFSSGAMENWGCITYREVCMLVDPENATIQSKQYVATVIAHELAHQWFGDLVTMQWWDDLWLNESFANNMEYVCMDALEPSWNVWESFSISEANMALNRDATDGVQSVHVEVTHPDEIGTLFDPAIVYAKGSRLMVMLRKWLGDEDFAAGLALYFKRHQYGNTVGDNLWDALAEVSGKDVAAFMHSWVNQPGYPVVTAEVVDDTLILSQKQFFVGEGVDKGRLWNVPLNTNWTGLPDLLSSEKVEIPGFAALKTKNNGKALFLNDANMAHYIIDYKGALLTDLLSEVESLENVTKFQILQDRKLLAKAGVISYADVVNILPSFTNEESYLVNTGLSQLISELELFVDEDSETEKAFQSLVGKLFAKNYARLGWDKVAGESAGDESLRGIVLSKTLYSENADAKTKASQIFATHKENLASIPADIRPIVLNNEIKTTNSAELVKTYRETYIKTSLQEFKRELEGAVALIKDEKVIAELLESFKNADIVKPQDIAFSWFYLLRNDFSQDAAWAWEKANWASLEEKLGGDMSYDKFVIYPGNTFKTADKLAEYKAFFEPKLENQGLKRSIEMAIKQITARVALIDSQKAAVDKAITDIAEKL

[2] = target: T1, aminopeptidase of L. lactis subsp. cremoris Wg2; assay: Hydrolysis of lysyl-p-nitroanilide / X-p-nitroanilide substrates (release of p-nitroanilide at 410 nm); assay type: biochemical; set-up: The cell extract obtained after sonication and centrifugation of L. lactis subsp. cremoris Wg2; endogenous in cells; host or cells: Proteinase-negative variant of Lactococcus lactis subsp. cremoris Wg2; Enzyme purified from the cell-free extract by DEAE-Sephacel, phenyl-Sepharose, Sephadex G-100 SF and MA7P HPLC; not recombinant; conditions: relative hydrolysis velocity of X-p-nitroanilide substrates
Method: Hydrolysis of lysyl-p-nitroanilide was determined by the method of Exterkate, Neth. Milk Diary J. 29, 1975, 303-318. A 2 mM solution of lysyl-p-nitroanilide was incubated for 15 minutes with a suitable amount of enzyme. The reaction was stopped by adding acetic acid up to a final concentration of 10%, and the amount of p-nitroanilide was measured at 410 nm (Hitachi U-1100 spectrophotometer).
All measurements of enzyme activities were carried out at 30°C in 20 mM HEPES pH 7, unless specified.
The highest activity was found for lysyl-p-nitroanilide and to a lesser extent for leucyl-p-nitroanilide. […] The affinity of the enzyme for lysyl-p-nitroanilide was determined.

[3] = target: T1, aminopeptidase of L. lactis subsp. cremoris Wg2; assay: as above; conditions: for Relative activity (%): relative hydrolysis velocity of X-p-nitroanilide substrates
[4] = target: T1, aminopeptidase of L. lactis subsp. cremoris Wg2; assay type: biochemical; remark: listed apart in the source
[5] = target: T1, aminopeptidase of L. lactis subsp. cremoris Wg2; assay: Hydrolysis of peptides detected by thin-layer chromatography (TLC); assay type: biochemical; set-up: The cell extract obtained after sonication and centrifugation of L. lactis subsp. cremoris Wg2; endogenous in cells; host or cells: Proteinase-negative variant of Lactococcus lactis subsp. cremoris Wg2; Enzyme purified from the cell-free extract by DEAE-Sephacel, phenyl-Sepharose, Sephadex G-100 SF and MA7P HPLC; not recombinant; key to Activity: + : hydrolysis; - : no hydrolysis to be observed; conditions: for hydrolysis of peptides (in words): peptide as substrate of the aminopeptidase; for Activity: substrate specificity, 2 mM substrate, 20 mM HEPES pH 7, 60 min. at 30°C, TLC
Method: Hydrolysis of several peptides was detected by thin-­layer chromatography (TLC). Peptidase activity was determined as follows: the reaction mixture containing 2 mM substrate in 20 mM 4-(2-hydroxyethyl)-1-piperazine-ethanesulphonic acid (HEPES) pH 7 and a suitable amount of enzyme was incubated for 60 min. at 30°C. The reaction mixture (10 microliter) was then placed on a precoated silica gel 60 plate having a layer thickness of 0.25 cm (Merck, Darmstadt, West-Germany). A 75% (wt./vol.) phenol/water mixture and in some cases a 4/1/1 (vol./vol./vol.) mixture of n-butanol, acetic acid and water was used as mobile phase. As a control, 2 mM of each standard peptide was also placed on the plate. The silica gels were coloured by spraying them with 0.1% (wt./vol.) ninhydrin in 99% ethanol. Peptides and amino acids became visible after incubation of the silica gel in an oven for 5 min. at 80°C.

[6] = substrate: NCCCCC(N)C(=O)Nc1ccc([N+](=O)[O-])cc1; assay: purified protein, by the assay type; conditions: other: Lineweaver-Burk plot, substrate of the aminopeptidase; pH 7.0; 30.0 °C

c1cnc2c(c1)ccc1cccnc12 [1,10-phenanthroline]
inhibition of the enzyme activity by chelating agents (in words) [1]: complete inhibition; also recorded: sensitivity

C[C@H](N)C(=O)N1CCC[C@H]1C(=O)Nc1ccc([N+](=O)[O-])cc1 [Ala-Pro-pNA] (H-Ala-Pro-pNA)
Relative activity (%) [2]: 4%

CC(N)C(=O)Nc1ccc([N+](=O)[O-])cc1 (stereo not drawn) [Ala-pNA]
Relative activity (%) [3]: 4%

[Ca+2] [Ca⁺⁺]
inhibitory effect of divalent cations on the enzyme activity (in words) [1]: no inhibitory effect at all
restoration of the activity of the enzyme treated with 1,10-phenanthroline (in words) [1]: could not restore the enzyme activity

OC(CS)C(O)CS (stereo not drawn) [DTT, dithiotreitol]
effect of chemical reagents on the aminopeptidase activity (in words) [1]: no inhibitory effect; also recorded: insensitive
inactivating effects of pCMB and mersalyl undone by reducing agent (in words) [4]: completely undone

O=C(O)CN(CCN(CC(=O)O)CC(=O)O)CC(=O)O [EDTA]
inhibition of the enzyme activity by chelating agents (in words) [1]: complete inhibition; also recorded: sensitivity

N[C@@H](CCC(=O)O)C(=O)Nc1ccc([N+](=O)[O-])cc1 [Glu-pNA]
Relative activity (%) [3]: < 1%

NCC(=O)Nc1ccc([N+](=O)[O-])cc1 [Gly-pNA]
Relative activity (%) [3]: < 1%

CC(C)CC(N)C(=O)Nc1ccc([N+](=O)[O-])cc1 (stereo not drawn) [Leu-pNA, leucyl-p-nitroanilide]
hydrolysis of p-nitroanilide substrates (in words) [3]: hydrolyses
Relative activity (%) [3]: 24%

NCCCCC(N)C(=O)Nc1ccc([N+](=O)[O-])cc1 (stereo not drawn) [Lys-pNA, lysyl-p-nitroanilide]
hydrolysis of p-nitroanilide substrates (in words) [3]: hydrolyses
maximum peptide hydrolysis velocity ([3]; Lineweaver-Burk plot): 1 millimol/min./mg
Relative activity (%) [3]: 100%

CSCCC(N)C(=O)Nc1ccc([N+](=O)[O-])cc1 (stereo not drawn) [Met-pNA, methionyl-p-nitroanilide]
Relative activity (%) [3]: 8%

[Mg+2] [Mg⁺⁺]
inhibitory effect of divalent cations on the enzyme activity (in words) [1]: no inhibitory effect at all
restoration of the activity of the enzyme treated with 1,10-phenanthroline (in words) [1]: could not restore the enzyme activity

CCN1C(=O)C=CC1=O [NEM, N-ethylmaleimide]
effect of chemical reagents on the aminopeptidase activity (in words) [1]: inhibitory effect; also recorded: strong inhibition

NC(Cc1ccccc1)C(=O)Nc1ccc([N+](=O)[O-])cc1 (stereo not drawn) [Phe-pNA]
Relative activity (%) [3]: 4%

O=C(Nc1ccc([N+](=O)[O-])cc1)C1CCCN1 (stereo not drawn) [Pro-pNA]
Relative activity (%) [3]: < 1%

NC(=O)CI [iodoacetamide]
effect of chemical reagents on the aminopeptidase activity (in words) [1]: inhibitory effect; also recorded: strong inhibition

COC(CNC(=O)c1ccccc1OCC(=O)O)[CH2][Hg][OH] (stereo not drawn) [mersalyl, O-(3-hydroxymercuri-2-methoxypropyl) carbamyl phenoxyacetate]
effect of chemical reagents on the aminopeptidase activity (in words) [1]: completely inhibited; also recorded: strong inhibition

O=C(O)c1cc[c]([Hg][Cl])cc1 [pCMB, p-chloromercuribenzoate]
effect of chemical reagents on the aminopeptidase activity (in words) [1]: completely inhibited; also recorded: strong inhibition

O=S(=O)(O)c1cc[c]([Hg][Cl])cc1 [pCMBS, p-chloromercuribenzenesulphonate]
effect of chemical reagents on the aminopeptidase activity (in words) [1]: completely inhibited; also recorded: strong inhibition

OCCS [β-mercaptoethanol]
effect of chemical reagents on the aminopeptidase activity (in words) [1]: no inhibitory effect; also recorded: insensitive
inactivating effects of pCMB and mersalyl undone by reducing agent (in words) [4]: completely undone

Bradykinin (RPPGFSPFR; Bradykinin; UniProt P01042 381-389, looked up)
hydrolysis of peptides (in words) [5]: hydrolyses; also recorded: can also act on
Activity [5]: +

Leu-Leu
hydrolysis of peptides (in words) [5]: hydrolyses
Activity [5]: +

PMSF
effect of chemical reagents on the aminopeptidase activity (in words) [1]: insensitive

Phe-Leu
hydrolysis of peptides (in words) [5]: does not prove capable of significant hydrolysis
Activity [5]: -

Phe-Val
hydrolysis of peptides (in words) [5]: does not prove capable of significant hydrolysis
Activity [5]: -

alanyl-alanine [Ala-Ala]
hydrolysis of peptides (in words) ([5]; listed as ala-ala): does not prove capable of significant hydrolysis
hydrolysis of peptides (in words) ([5]; listed as alanyl-alanine): not
Activity [5]: -

benzoyl-glycyl-lysine
hydrolysis of peptides (in words) [5]: does not seem capable of hydrolysis

carbobenzoxy-prolylalanine
hydrolysis of peptides (in words) [5]: does not seem capable of hydrolysis

carboxybenzoxy-phenylalanyl-alanine
hydrolysis of peptides (in words) [5]: does not seem capable of hydrolysis

B1: aminopeptidase of L. lactis subsp. cremoris Wg2 (Lactococcus cremoris) (protein)
chain: MAVKRLIETFVPENYKIFLDIDRKTKKIKGQVAITGEAKDTVVAFHAKGLHFNKVRAFSVDTNFIENEEDEEIVVKIGETGRVTVSFEYEAELTDNMMGIYPSYYEVNGEKKMLIGTQFESHFARQAFPSIDEPEAKATFDLSVKFDEEEGDIIVSNMPELLNINGIHVFERTVKMSSYLLAFVFGELQYKKGKTKSGVEVGAFATKAHSQAALDFPLDIAIRSIEFYEDYYQTPYPLPHSWHIALPDFSSGAMENWGCITYREVCMLVDPENATIQSKQYVATVIAHELAHQWFGDLVTMQWWDDLWLNESFANNMEYVCMDALEPSWNVWESFSISEANMALNRDATDGVQSVHVEVTHPDEIGTLFDPAIVYAKGSRLMVMLRKWLGDEDFAAGLALYFKRHQYGNTVGDNLWDALAEVSGKDVAAFMHSWVNQPGYPVVTAEVVDDTLILSQKQFFVGEGVDKGRLWNVPLNTNWTGLPDLLSSEKVEIPGFAALKTKNNGKALFLNDANMAHYIIDYKGALLTDLLSEVESLENVTKFQILQDRKLLAKAGVISYADVVNILPSFTNEESYLVNTGLSQLISELELFVDEDSETEKAFQSLVGKLFAKNYARLGWDKVAGESAGDESLRGIVLSKTLYSENADAKTKASQIFATHKENLASIPADIRPIVLNNEIKTTNSAELVKTYRETYIKTSLQEFKRELEGAVALIKDEKVIAELLESFKNADIVKPQDIAFSWFYLLRNDFSQDAAWAWEKANWASLEEKLGGDMSYDKFVIYPGNTFKTADKLAEYKAFFEPKLENQGLKRSIEMAIKQITARVALIDSQKAAVDKAITDIAEKL
Km [6]: 550 µM
Vmax [6]: 1000 µmol/min. mg protein
kcat [6]: 1580 s⁻¹
